Tests used:
dCK in CCRF-CEM cells = dCK in CCRF-CEM cells (Homo sapiens, UniProt P27707); assay: cell-based
Method: These were performed in CCRF-CEM acute lymphoblastic leukemia cells as previously described.^8, 9
dCK Uptake Assay Performed in Cell Culture. […] For the uptake assays cells were seeded at a density of 50,000 cells/well in Millipore MultiScreen GV 96 well plates. […] After 1 h at 37° C., cells were washed four times with ice cold phosphate-buffered saline (PBS) using the Millipore Vacuum Manifold. The amount of incorporated probe was measured by scintillation counting with the PerkinElmer Microbeta.

[1] = Tolerability in NSG mice (body weight, peripheral blood counts); type: in vivo; settings: twice/day for 7 days, alone or in combination with dT
Source text: All mice were anesthetized and whole blood was obtained through cardiac puncture. For peripheral blood counts, samples were collected in tubes containing EDTA and submitted to UCLA Division of Lab Animal Medicine for analysis.

[2] = tested on: dCTP and dTTP pools of CEM cells; assay: Intracellular dNTP pool measurement in CEM cells; type: cell-based, human; settings: 24 hr, DI-39 1 μM, dT 50 μM, or both
Solubility statement = type: physicochemical
[3] = Pharmacokinetics of DI-39 in plasma and tumor tissue (LC/MS/MS-MRM); type: in vivo; settings: mouse, ip
Method: To determine the pharmacokinetic profile of DI-39, C57Bl/6 female mice were dosed with DI-39 via intraperitoneal injection following the protocol that was described previously (Murphy et al., 2013). Dose formulation include 10% DMSO and 40% Captisol (SBE-β-CD, a polyanionic variably substituted sulfobutyl ether of β-cyclodextrin, (Stella and He, 2008)) in water. Approximately 75 μL of whole blood was obtained at various time points starting 5 to 360 minutes through retro-orbital sinus bleed using hematocrit capillary tubes. Approximated values of the Area Under the Curve (AUC), clearance rate (CL), half-life (T1/2), maximum concentration in the plasma (Cmax) and time to reach the maximum concentration (Tmax) were calculated using Boomer/Multi-Forte P K Functions from Microsoft Excel.
For the DI-39 tumoral and plasma uptake study using LC/MS/MS-MRM, tumor-bearing NSG mice were injected with 50 mg/kg DI-39 intraperitoneally at 0, 2, 4, 8 and 12 hours prior to sacrifice. […] The ion transitions for DI-39 and DI-70 (525.2→383.3 and 550.2→408.2 respectively) were recorded under previously optimized conditions. […]

dCK activity in liver = dCK activity in liver (Mus musculus, UniProt P43346); assay: 18F-L-FAC PET liver assay of in vivo dCK inhibition; settings: mice
Method: Evaluation of In Vivo Inhibition of dCK Activity Via a New PET PD Assay. […] Four hours later, treated mice were injected intravenously with ^18F-L-FAC; one hour after probe injection, mice were imaged by mPET/CT. The readout for the PET PD assay was the reduction in the accumulation of ^18F-L-FAC in dCK-positive tissues in dCK inhibitor versus vehicle treated mice. […] Since the reproducibility in the dCK-dependent tissue retention of ^18F-L-FAC was most consistent in the liver^27, we chose to quantify ^18F-L-FAC liver retention in order to compare the in vivo efficacy of the various dCK inhibitors.
In Vivo MicroPET/CT Imaging Studies. […] Four hours post-treatment mice were injected intravenously with 70 μCi of ^18F-L-FAC. For all mPET/CT studies, a 1 h interval was allowed between probe administration and mPET/CT scanning (Inveon, Siemens Medical Solutions USA Inc.; microCAT, Imtek Inc.). Static mPET images were acquired for 600 s. Images were analyzed using OsiriX Imaging Software Version 3.8.

in vitro = settings: human, microsomes
[4] = IC50 (nM), Table 3, inhibition of 3H-deoxycytidine (dCyd) uptake in CEM cells, mean ± SD of n ≥ 2 unless (n = 1)
[5] = IC50, Example 4 list, assay and unit inferred, values correspond to the CEM 3H-dC uptake data of Tables 3 and 7
[6] = IC50, Example 5 list, assay and unit inferred, values correspond to the CEM data of Table 3

Sequence of dCK in CCRF-CEM cells (P27707 whole entry): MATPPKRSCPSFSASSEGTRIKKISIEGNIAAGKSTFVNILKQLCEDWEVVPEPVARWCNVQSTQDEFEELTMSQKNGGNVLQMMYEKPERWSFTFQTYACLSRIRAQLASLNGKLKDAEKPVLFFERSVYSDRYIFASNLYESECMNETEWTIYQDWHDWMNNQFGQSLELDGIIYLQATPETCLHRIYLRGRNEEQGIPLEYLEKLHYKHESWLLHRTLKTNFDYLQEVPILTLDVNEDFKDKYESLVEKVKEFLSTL
Sequence of dCK activity in liver (P43346 whole entry): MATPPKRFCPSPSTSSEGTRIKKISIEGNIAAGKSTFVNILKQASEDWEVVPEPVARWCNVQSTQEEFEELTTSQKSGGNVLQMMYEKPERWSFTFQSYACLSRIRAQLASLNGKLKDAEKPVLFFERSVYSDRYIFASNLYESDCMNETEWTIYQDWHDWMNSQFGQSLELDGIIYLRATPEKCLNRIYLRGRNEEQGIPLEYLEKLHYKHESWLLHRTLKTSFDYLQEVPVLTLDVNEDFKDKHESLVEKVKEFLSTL

Structure (SMILES) | IC50 (dCK in CCRF-CEM cells; [4]) | IC50 (dCK in CCRF-CEM cells; [5]) | further results
CCCc1sc(-c2ccc(OC)c(OCCCF)c2)nc1CSc1nc(N)cc(N)n1 [Compound S3] | 2.5 nM | 2.51 nM | –
CCCc1sc(-c2ccc(OC)c(OCCOCCOCCOC)c2)nc1CSc1nc(N)cc(N)n1 [Compound S20, 2-(((2-(4-methoxy-3-(2-(2-(2-methoxyethoxy)ethoxy)ethoxy)phenyl)-5-propylthiazol-4-yl)methyl)thio)pyrimidine-4,6-diamine] | 3.31 nM | 3.31 nM | –
CCCc1sc(-c2cccc(OCCOCCOCCF)c2)nc1CSc1nc(N)cc(N)n1 [Compound S17] | 69.1 nM | 69.1 nM | –
CCCc1sc(-c2ccnc(OCCNS(C)(=O)=O)c2)nc1CSc1nc(N)cc(N)n1 [DI-46] | – | 1180 nM | –
CCCc1sc(-c2ccc(OC)c(OCCNS(C)(=O)=O)c2)nc1CSc1nc(N)cc(N)n1 [Compound 37, N-(2-(5-(4-(((4,6-diaminopyrimidin-2-yl)thio)methyl)-5-propylthiazol-2-yl)-2-methoxyphenoxy)ethyl)methanesulfonamide] | – | – | effect on body weight [1]: did not affect body weight; effects on RBCs, hemoglobin, platelets or neutrophils [1]: no detectable effects; decrease of dCTP pool [2]: ~30%; solubility in aqueous saline solutions (Solubility statement): limited solubility; half-life ([3]; female, plasma, C57Bl/6 mice, intraperitoneal injection): ~50 min; concentration at 8 hr ([3]; 8 hr after single dose administration, 50 mg/kg intraperitoneal, CEM tumor-bearing NSG mice, read-out: drug present in tumor tissues): ~15 nM
CCCc1sc(-c2ccc(OC)c(OCCF)c2)nc1CCc1nc(N)cc(N)n1 [Compound S15] | 664 nM | 664 nM | –
COCCOCCOCCOc1cc(-c2nc(CSc3nc(N)cc(N)n3)c(C3CC3)s2)ccc1OC [Compound S25] | 23 nM | 5.28 nM | –
CCCc1sc(-c2cc(F)cc(OCCOCCOCCF)c2)nc1CSc1nc(N)cc(N)n1 [Compound S19] | 33.7 nM | 33.7 nM | –
CCCc1sc(-c2ccc(OCCOCCOCCOC)c(OCC)c2)nc1CSc1nc(N)cc(N)n1 [Compound S21] | 2.37 nM | 2.37 nM | –
CCCc1sc(-c2ccc(OCCF)c(OCC)c2)nc1CSc1nc(N)cc(N)n1 [Compound S4] | 2.8 nM | 2.86 nM | –
CCCc1sc(-c2ccc(OC)c(OCCOCCOCCF)c2)nc1CSc1nc(N)cc(N)n1 [Compound S16] | 4.22 nM | 4.21 nM | –
CCCc1sc(-c2ccc(N(CCNS(C)(=O)=O)S(C)(=O)=O)c(OCCNS(C)(=O)=O)c2)nc1CSc1nc(N)cc(N)n1 [Compound S2] | 1200 nM | 1200 nM | –
CCCc1sc(-c2ccc(OC)c(OCCOCCOCCOC)c2)nc1C(C)Sc1nc(N)cc(N)n1 (stereo not drawn) [Compound S22] | 6 nM | – | IC50 (dCK in CCRF-CEM cells; [6]): 6.01 nM
CCCc1sc(-c2ccc(OC)c(OCCOCCOCCSc3nc(N)cc(N)n3)c2)nc1CSc1nc(N)cc(N)n1 [Compound S10] | 4.7 nM | 4.75 nM | –
COCCOCCOCCOc1cc(-c2nc(CSc3nc(N)cc(N)n3)c(C(Sc3nc(N)cc(N)n3)c3ccccc3)s2)ccc1OC (stereo not drawn) [DI-78] | – | 1660 nM | –
Cc1sc(-c2cc(F)cc(OCCNS(C)(=O)=O)c2)nc1C(C)Sc1nc(N)cc(N)n1 (stereo not drawn) [Compound S31] | 9.07 nM | – | –

Structure (SMILES) | IC50 (dCK in CCRF-CEM cells; [4]) | IC50 (dCK in CCRF-CEM cells; [5]) | further results
COCCOCCOCCOc1cc(-c2nc(CSc3nc(N)cc(N)n3)c(C)s2)ccc1OC [Compound S26] | 9.1 nM | 9.3 nM | –
COCCOCCOCCOc1cc(-c2nc(C(C)Sc3nc(N)cc(N)n3)c(C3CC3)s2)ccc1OC (stereo not drawn) [Compound S27] | 3.7 nM | – | outcome in the PET L-FAC liver assay (dCK activity in liver): failed; IC50 (dCK in CCRF-CEM cells; [6]): 2.47 nM
COc1ccc(-c2nc(CSc3nc(N)cc(N)n3)c(C)s2)cc1OCCF [Compound 15a, 2-(((2-(3-(2-fluoroethoxy)-4-methoxyphenyl)-5-methylthiazol-4-yl)methyl)thio)pyrimidine-4,6-diamine] | – | – | half-life at 1 μM (in vitro): 16.3 min; microsomal CLint at 1 μM (in vitro): 142 µL/min/mg
CCCc1sc(-c2ccc(OC)c(OCCO)c2)nc1CSc1cc(N)nc(N)n1 [DI-42] | – | 330 nM | –
COc1cc(-c2cc(CSc3nc(N)cc(N)n3)c(C)o2)ccc1OCCF [Compound S14] | 276 nM | 276 nM | –
CCCc1sc(-c2ccc(F)c(OCCF)c2)nc1CSc1nc(N)cc(N)n1 [Compound S6] | 23.3 nM | 23.4 nM | –
COCCOCCOCCOc1cc(-c2nc(C(C)Sc3nc(N)cc(N)n3)c(-c3ccccc3)s2)ccc1OC (stereo not drawn) [Compound S28] | 98.9 nM | – | –
COCCOCCOCCOc1ccc(-c2nc(C(C)Sc3nc(N)cc(N)n3)c(C)s2)cc1OC (stereo not drawn) [Compound S24] | 6.1 nM | – | IC50 (dCK in CCRF-CEM cells; [6]): 6.12 nM
COc1cc(-c2cc(CSc3nc(N)cc(N)n3)sc2C)ccc1OCCF [DI-63] | – | 1580 nM | –
CCCc1sc(-c2ccc(F)c(OCCCF)c2)nc1CSc1nc(N)cc(N)n1 [Compound S5] | 31.7 nM | 31.7 nM | –
[2H]C([2H])(Sc1nc(N)cc(N)n1)c1nc(-c2ccnc(OCCF)c2)sc1CCC [Compound S8] | 30 nM | 30 nM | –
COCCOCCOCCOc1cc(-c2nc(C(C)Sc3nc(N)cc(N)n3)c(C)s2)ccc1OC (stereo not drawn) [Compound S23] | 8.03 nM | – | IC50 (dCK in CCRF-CEM cells; [6]): 8.03 nM
CCCc1sc(-c2ccnc(OCCF)c2)nc1CSc1nc(N)cc(N)n1 [Compound S7] | 6.8 nM | 6.84 nM | –
COc1ccc(-c2cc(CSc3nc(N)cc(N)n3)c(C)o2)cc1OCCF [Compound S12] | 13500 nM | 13800 nM | –
CCCc1sc(-c2ccc(OC)c(OCCOCCOCCO)c2)nc1CSc1nc(N)cc(N)n1 [Compound S11] | 1.06 nM | 1.06 nM | –
COc1cc(-c2cc(CSc3nc(N)cc(N)n3)c(C)s2)ccc1OCCF [Compound S18] | 262 nM | 263 nM | –

— US9981961B2, “Deoxycytidine kinase inhibitors” (The Regents of the University of California, priority 2013, dated 2018)
